Among the test systems are HOP-18 NSCLC; M19-MEL melanoma; DMS 273 small cell lung; LXFL 529 NSCLC; SNB-78 CNS; MDA-MB-435; DU-145 prostate; MDA-N.
Assay in all cases: DTP human tumour cell line panel, 48 h

These results are taken from PubChem BioAssay (NCI).

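96-well plates; 48 h exposure; 5 concentrations. Endpoints by linear interpolation between flanking doses. Not reached: highest tested concentration assigned. GI50 marks 50% less growth. The concentration for full growth arrest is given as TGI.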 Where a SMILES comes first, the peptide text is derived from it. [ ]: non-standard residue; d: D form. The star is where a group is joined. NMeF = CN[CH](Cc1ccccc1)C(=O)O; NMeV = CN[CH](C(=O)O)C(C)C; Boc = CC(C)(C)OC(=O)* A value given as a limit tells only on which side of the number the result lay.

Turning to `COC(=O)/C(=N\Nc1nnc(C)n1N)C(C#N)c1ccc(Cl)cc1` (centres undefined), the TGI in the experiment on HOP-18 NSCLC, with M19-MEL melanoma, with DMS 273 small cell lung, in the experiment with LXFL 529 NSCLC and with SNB-78 CNS was above 100 µM in each case.

As to `CN1c2ccc(Cl)cc2C(=O)NC1c1ccc([N+](=O)[O-])s1` (centres undefined), the TGI was 31.4 µM with MDA-MB-435, 45.1 µM in the experiment on DU-145 prostate and 31.7 µM in the experiment with MDA-N.

For `COc1ccccc1CCc1cc(OC)c(OC)c(OC)c1`, the concentration for total growth inhibition (TGI) in the experiment on HOP-18 NSCLC, in the experiment on M19-MEL melanoma, in the experiment on DMS 273 small cell lung, in the experiment on LXFL 529 NSCLC and in the experiment with SNB-78 CNS was above 100 µM throughout.

On to `CCOC(=O)c1c(C)n(Cc2ccc(Cl)cc2Cl)c2c1c(CN(C)C)c(O)c1[nH]cnc12`, for which, in the experiment with MDA-MB-435, the GI50 was 23.6 µM and the TGI was determined as 51.1 µM. Also, in the experiment with DU-145 prostate, the GI50 is 17.2 µM and the TGI was 30.9 µM.

Take `CC(C)C(NC(=O)OC(C)(C)C)C(=O)N(C)C(Cc1ccccc1)C(=O)N(C)C(C(=O)O)C(C)C` (stereo not drawn) (Boc-Val-[NMeF]-[NMeV]-OH; configuration not given here): the TGI in the experiment with M19-MEL melanoma, in the experiment on DMS 273 small cell lung and in the experiment on LXFL 529 NSCLC was above 100 µM throughout.

As for `C=C1C(=O)O[C@H]2[C@H]1CC/C(COC(=O)C(=O)c1cn(Cc3ccccc3)c3ccccc13)=C\CC[C@@]1(C)O[C@@H]21`, the values for the GI50 in the experiment on MDA-MB-435 and in the experiment with DU-145 prostate were 2.41 µM and 2.96 µM, respectively. The figures for the TGI with MDA-MB-435 and with DU-145 prostate were 7.77 µM and 11.3 µM, respectively.

Regarding `N#C/C(=C1C=C(Br)/C(=N\O)C=C\1Cl)c1cccc2ccccc12`, the results for the concentration for total growth inhibition (TGI) in the experiment with MDA-MB-435, in the experiment on DU-145 prostate and with MDA-N were 10.4 µM, 12.6 µM and 3.28 µM, respectively.

Regarding `COc1cc(-c2ccc3c(c2)NC(=O)/C3=C\c2ccc[nH]2)ccc1O`, in the experiment on DU-145 prostate, the GI50 was 0.0193 µM and the total growth inhibition concentration (TGI) is above 30.2 µM.

Take `O=C(N/N=C/c1ccc(Cl)cc1)c1ccc(C(F)(F)F)nc1Nc1cccc(C(F)(F)F)c1`: the values for the GI50 with MDA-MB-435 and in the experiment with DU-145 prostate were 3.17 µM and 2.33 µM, respectively. Further, the TGI in the experiment with MDA-MB-435 was found to be 20.1 µM; with DU-145 prostate, 10.8 µM.

In the case of `COc1ccc(Nc2c3ccccc3nc3occc23)cc1`, the GI50 in the experiment with MDA-MB-435 was 0.171 µM. In the experiment on DU-145 prostate, the GI50 was 14.2 µM and the TGI is above 100 µM.

Consider `CCOC(=O)[C@@H](N)CCC(=O)N[C@@H](CSCc1ccccc1)C(=O)N[C@@H](C(=O)OCC)c1ccccc1`, for which the GI50 in the experiment with MDA-MB-435 is 16.5 µM; in the experiment with DU-145 prostate, 38.3 µM. Moreover, the TGI is 32.4 µM with MDA-MB-435 and above 100 µM in the experiment with DU-145 prostate.

In the case of `CS/C(N)=N\NC(=O)CCC(=O)Nc1ccccc1C(F)(F)F`, the TGI in the experiment on HOP-18 NSCLC, in the experiment on M19-MEL melanoma, with DMS 273 small cell lung, in the experiment on LXFL 529 NSCLC and in the experiment on SNB-78 CNS was above 100 µM throughout.

For the compound `CC(=O)CSCc1ccccn1`, the TGI with MDA-MB-435, in the experiment on DU-145 prostate and with MDA-N was above 100 µM in each case.

For the compound `COc1ccc(-c2n[nH]nc2-c2cc(OC)c(OC)c(OC)c2)cc1`, in the experiment on MDA-MB-435, the GI50 was below 0.01 µM and the TGI is below 0.01 µM.

As to `Cc1ccc(C(=O)CN(/C=C/C(=O)C(F)(F)F)c2ccc(S(N)(=O)=O)cc2)cc1`, in the experiment with MDA-MB-435, the GI50 is above 100 µM and the TGI is above 100 µM. Also, in the experiment on DU-145 prostate, the GI50 was above 100 µM and the TGI was above 100 µM.

Consider `CC(C)(C)c1cc(Br)c(O)c(CN(Cc2cc(C(C)(C)C)cc(Br)c2O)C2CCCCC2)c1`, for which the TGI was 27.4 µM with MDA-MB-435, 26.8 µM with DU-145 prostate and 27.6 µM in the experiment on MDA-N.

For `CN1CCN(CCCOc2ccc3nc(Nc4ccc(Cl)c(C(F)(F)F)c4)ccc3c2)CC1`, in the experiment on MDA-MB-435, the GI50 was 11.7 µM and the concentration for total growth inhibition (TGI) stood at 24.2 µM. Besides, in the experiment on DU-145 prostate, the GI50 was 11.9 µM and the TGI is 24.3 µM.

On to `COC1=C(C)C(=O)c2c(c(COC(N)=O)c3n2CC2C3N2C)C1=O` (centres undefined), for which the TGI with MDA-MB-435 turned out to be 0.0921 µM; in the experiment on DU-145 prostate, 0.0542 µM; in the experiment with MDA-N it was 0.136 µM.

On to `CC(C)n1nc(-c2cc3cc(O)ccc3[nH]2)c2c(N)ncnc21`, for which, in the experiment with MDA-MB-435, the GI50 was 0.219 µM and the TGI worked out at 1.77 µM. Besides, in the experiment with DU-145 prostate, the GI50 is 0.498 µM and the TGI worked out at 12 µM.

`Cc1cccc(N2CCN(C(=S)c3ccc4c(c3)OCO4)CC2)c1`: in the experiment with DU-145 prostate, the GI50 was 2.34 µM and the total growth inhibition concentration (TGI) is above 100 µM.

`NP(=O)(Oc1c2occc2cc2ccc(=O)oc12)N(CCCl)CCCl` (centres undefined): the total growth inhibition concentration (TGI) in the experiment on MDA-MB-435, in the experiment with DU-145 prostate and in the experiment on MDA-N was above 100 µM each time.

As to `COc1ccc(/C=C/c2ccnc3ccccc23)c(OC)c1`, the figures for the TGI with MDA-MB-435, in the experiment with DU-145 prostate and with MDA-N were 5.09 µM, above 10 µM and above 10 µM, respectively.

On to `Cc1ccn2c(c1)nc1nc3ccccc3nc12`, for which the TGI in the experiment with M19-MEL melanoma, in the experiment on DMS 273 small cell lung, in the experiment with LXFL 529 NSCLC and in the experiment with SNB-78 CNS was above 100 µM each time.

Take `CCC[CH2][Sn]1([CH2]CCC)[O]CC(CN2CCCC2)[O]1` (centres undefined): the GI50 in the experiment on M19-MEL melanoma is 14.6 µM; with DMS 273 small cell lung it was 16.3 µM; in the experiment with LXFL 529 NSCLC, 4.33 µM; with SNB-78 CNS, 11.4 µM. The TGI in the experiment with M19-MEL melanoma stood at 29.4 µM; with DMS 273 small cell lung, 30.8 µM; in the experiment with LXFL 529 NSCLC, 15.3 µM; in the experiment with SNB-78 CNS, 37.4 µM.

Regarding `COc1cc2c3c(n(CCCNC(=O)OCC4c5ccccc5-c5ccccc54)c(=O)c2cc1OC)-c1cc2c(cc1/C3=C\CCNC(=O)OCC1c3ccccc3-c3ccccc31)OCO2`, the values for the GI50 in the experiment with MDA-MB-435 and with DU-145 prostate were above 28.9 µM and above 42.2 µM, respectively. The TGI in the experiment on MDA-MB-435 was 49 µM; with DU-145 prostate, above 50 µM.

In the case of `CCCCCCCC/C=C/CCCCCCCC(=O)OC[C@H]1O[C@@H](n2ccc(N)nc2=O)C(F)(F)[C@@H]1O`, the GI50 is below 0.0266 µM in the experiment with MDA-MB-435 and below 0.019 µM with DU-145 prostate. Moreover, the TGI in the experiment on MDA-MB-435 is above 100 µM; with DU-145 prostate it was above 46.2 µM.

As for `NS(=O)(=O)c1ccc(NC2(C(=O)O)CCCC2)cc1`, the total growth inhibition concentration (TGI) in the experiment with MDA-MB-435, with DU-145 prostate and in the experiment on MDA-N was above 100 µM throughout.
